Assay results from PubChem BioAssay (NCI).
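Five compound concentrations were applied to cells in 96-well plates for 48 hours; endpoints were derived by simple linear interpolation of the resulting dose-response curve. GI50 is the concentration that inhibits growth by half. TGI marks complete inhibition of growth.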

Legend:
Test in all cases: growth of human tumour cells (NCI), 48 h
[1] = test system: 786-0 renal
[2] = test system: SR leukemia
[3] = test system: HCT-15 colon
[4] = test system: SK-OV-3 ovarian
[5] = test system: IGROV1 ovarian
[6] = test system: M14 melanoma
[7] = test system: CCRF-CEM leukemia
[8] = test system: RPMI-8226 leukemia
[9] = test system: OVCAR-5 ovarian
[10] = test system: SNB-75 CNS

| SMILES | GI50 [1] [µM] | TGI [1] [µM] | GI50 [2] [µM] | TGI [2] [µM] | GI50 [3] [µM] | TGI [3] [µM] | GI50 [4] [µM] | TGI [4] [µM] | GI50 [5] [µM] | TGI [5] [µM] | GI50 [6] [µM] | TGI [6] [µM] | GI50 [7] [µM] | TGI [7] [µM] | GI50 [8] [µM] | TGI [8] [µM] | GI50 [9] [µM] | TGI [9] [µM] | GI50 [10] [µM] | TGI [10] [µM] |
| --- | --- | --- | --- | --- | --- | --- | --- | --- | --- | --- | --- | --- | --- | --- | --- | --- | --- | --- | --- | --- |
| CCSC1=NC2C(N(CC)C(=O)N2CC)N1/N=C/C=C/c1ccccc1[N+](=O)[O-] (stereo not given) | 0.405 | > 100 | 0.0895 | > 48 | 0.204 | > 100 | 0.329 | > 100 | 0.246 | > 100 | 0.184 | > 100 | 0.331 | > 100 | 0.334 | > 34.1 | 0.426 | > 100 | 0.0528 | > 100 |
| Cc1ccc2cnc(N)c(C#Cc3cc(C(=O)Nc4ccc(CN5CCN(C)CC5)c(C(F)(F)F)c4)cnc3C)c2c1 | 0.809 | 1.68 | 0.39 | 1.61 | 0.385 | 1.17 | 1.61 | 4.19 | 0.128 | 0.712 | 0.334 | 1.16 | 0.917 | 2.85 | 1.01 | 2.86 | 0.688 | 1.49 | 0.756 | 1.61 |
| N#C[Se]Cc1cc(-c2ccccc2)n(-c2ccc(S(N)(=O)=O)cc2)n1 | 2.63 | 6.49 | 1.37 | 6.13 | 2.05 | 5.55 | 2.69 | 5.26 | 0.322 | 1.08 | 0.24 | 0.659 | 0.914 | > 27.3 | 1.9 | 5.02 | 1.86 | 3.97 | 0.59 | 3.51 |
